Assays:
Escherichia coli [1] = experiment: Genotoxicity in Escherichia coli PQ37 assessed as ratio of beta-galactosidase/AP activity in presence and absence of drug at 10 ug; assay type: toxicity, organism-based
Escherichia coli [2] = experiment: Inhibition of nifuroxazide-induced genotoxicity in Escherichia coli PQ37 at 2 ug by SOS chromotest; assay type: functional
Escherichia coli [3] = experiment: Inhibition of nifuroxazide-induced genotoxicity in Escherichia coli PQ37 at 10 ug by SOS chromotest; assay type: functional
Escherichia coli [4] = experiment: Inhibition of nifuroxazide-induced genotoxicity in Escherichia coli PQ37 at 50 ug by SOS chromotest; assay type: functional
Escherichia coli [5] = experiment: Genotoxicity in Escherichia coli PQ37 assessed as ratio of beta-galactosidase/AP activity in presence and absence of drug at 50 ug; assay type: toxicity, organism-based
Escherichia coli [6] = experiment: Genotoxicity in Escherichia coli PQ37 assessed as ratio of beta-galactosidase/AP activity in presence and absence of drug at 2 ug; assay type: toxicity, organism-based
Escherichia coli [7] = experiment: Genotoxicity in Escherichia coli PQ37 assessed as ratio of beta-galactosidase/AP activity in presence and absence of drug at 5 ug; assay type: toxicity, organism-based

How did the Ratio (Escherichia coli [1]) turn out when Cc1nc2c3c(ncn2n1)Oc1ccc2ccccc2c1C3C(C)C (stereo not drawn) was run?
Its Ratio is 1.1.

And the Inhibition (Escherichia coli [2])?
The Inhibition was 99%.

And the Inhibition (Escherichia coli [3])?
Its Inhibition is 98%.

What about the Inhibition (Escherichia coli [4]) of the same compound?
The Inhibition was 95%.

What about the Ratio (Escherichia coli [5]) of the same compound?
The Ratio was 1.39.

And the Ratio (Escherichia coli [6])?
Its Ratio is 1.01.

How did the Ratio (Escherichia coli [1]) turn out when c1ccc(-c2nc3c4c(ncn3n2)Oc2ccc3ccccc3c2C4c2ccccc2)cc1 (stereo not drawn) was run?
The Ratio was 1.24.

What about the Inhibition (Escherichia coli [2]) of the same compound?
Its Inhibition is 78%.

What about the Inhibition (Escherichia coli [3]) of the same compound?
The Inhibition was 86%.

And the Inhibition (Escherichia coli [4])?
The Inhibition was 99%.

What about the Ratio (Escherichia coli [5]) of the same compound?
Its Ratio is 1.4.

And the Ratio (Escherichia coli [6])?
The Ratio was 1.02.

How did the Ratio (Escherichia coli [1]) turn out when Clc1ccccc1C1c2c(ccc3ccccc23)Oc2ncn3nc(-c4ccccc4)nc3c21 (stereo not drawn) was run?
Its Ratio is 1.21.

What about the Inhibition (Escherichia coli [2]) of the same compound?
The Inhibition was 64%.

What about the Inhibition (Escherichia coli [3]) of the same compound?
Its Inhibition is 60%.

What about the Inhibition (Escherichia coli [4]) of the same compound?
Its Inhibition is 48%.

And the Ratio (Escherichia coli [5])?
Its Ratio is 1.62.

And the Ratio (Escherichia coli [6])?
Its Ratio is 1.16.

Which results are given for Clc1ccc(C2c3c(ccc4ccccc34)Oc3ncn4nc(-c5ccccc5)nc4c32)cc1 (stereo not drawn)?
Ratio (Escherichia coli [1]): 1.33; Inhibition (Escherichia coli [2]): 32%; Inhibition (Escherichia coli [3]): 38%; Inhibition (Escherichia coli [4]): 48%; Ratio (Escherichia coli [5]): 1.67; Ratio (Escherichia coli [6]): 1.44

Which results are given for CC(C)C1c2c(ccc3ccccc23)Oc2ncn3nc(-c4ccccc4)nc3c21 (stereo not drawn)?
Ratio (Escherichia coli [1]): 1.19; Inhibition (Escherichia coli [2]): 62%; Inhibition (Escherichia coli [3]): 61%; Inhibition (Escherichia coli [4]): 63%; Ratio (Escherichia coli [5]): 1.25; Ratio (Escherichia coli [6]): 1.11

How did the Ratio (Escherichia coli [1]) turn out when Cc1nc2c3c(ncn2n1)Oc1ccc2ccccc2c1C3c1ccccc1 (stereo not drawn) was run?
Its Ratio is 1.32.

And the Inhibition (Escherichia coli [2])?
The Inhibition was 70%.

What about the Inhibition (Escherichia coli [3]) of the same compound?
Its Inhibition is 61%.

And the Inhibition (Escherichia coli [4])?
Its Inhibition is 56%.

And the Ratio (Escherichia coli [5])?
Its Ratio is 1.56.

And the Ratio (Escherichia coli [6])?
The Ratio was 1.12.

With c1ccc(-c2nc3c4c(ncn3n2)Oc2ccc3ccccc3c2C4c2ccco2)cc1 (stereo not drawn) as the compound, how does the Ratio (Escherichia coli [1]) read?
The Ratio was 1.4.

And the Inhibition (Escherichia coli [2])?
Its Inhibition is 99%.

And the Inhibition (Escherichia coli [3])?
The Inhibition was 99%.

What about the Inhibition (Escherichia coli [4]) of the same compound?
The Inhibition was 75%.

And the Ratio (Escherichia coli [5])?
The Ratio was 1.3.

And the Ratio (Escherichia coli [6])?
The Ratio was 1.3.

For O=C(N/N=C/c1ccc([N+](=O)[O-])o1)c1ccc(O)cc1 [NIFUROXAZIDE], which Ratio (Escherichia coli [7]) is on record?
Its Ratio is 12.88.
